ChEMBL document CHEMBL2321762, “Design, synthesis, and SAR of N-((1-(4-(propylsulfonyl)piperazin-1-yl)cycloalkyl)methyl)benzamide inhibitors of glycine transporter-1” (Bioorg Med Chem Lett, 2013)
The source made the active and inactive calls. The calls are words filed in the database; no cut-off is given here.

Columns and labels:
[1] = molecular target: T1, Sodium- and chloride-dependent glycine transporter 1 (Homo sapiens, UniProt P48067); experiment: Inhibition of GlyT1a in human JAR cells assessed as inhibition of [3H]glycine uptake by scintillation proximity assay; format: cell-based
T1 sequence (P48067 whole entry): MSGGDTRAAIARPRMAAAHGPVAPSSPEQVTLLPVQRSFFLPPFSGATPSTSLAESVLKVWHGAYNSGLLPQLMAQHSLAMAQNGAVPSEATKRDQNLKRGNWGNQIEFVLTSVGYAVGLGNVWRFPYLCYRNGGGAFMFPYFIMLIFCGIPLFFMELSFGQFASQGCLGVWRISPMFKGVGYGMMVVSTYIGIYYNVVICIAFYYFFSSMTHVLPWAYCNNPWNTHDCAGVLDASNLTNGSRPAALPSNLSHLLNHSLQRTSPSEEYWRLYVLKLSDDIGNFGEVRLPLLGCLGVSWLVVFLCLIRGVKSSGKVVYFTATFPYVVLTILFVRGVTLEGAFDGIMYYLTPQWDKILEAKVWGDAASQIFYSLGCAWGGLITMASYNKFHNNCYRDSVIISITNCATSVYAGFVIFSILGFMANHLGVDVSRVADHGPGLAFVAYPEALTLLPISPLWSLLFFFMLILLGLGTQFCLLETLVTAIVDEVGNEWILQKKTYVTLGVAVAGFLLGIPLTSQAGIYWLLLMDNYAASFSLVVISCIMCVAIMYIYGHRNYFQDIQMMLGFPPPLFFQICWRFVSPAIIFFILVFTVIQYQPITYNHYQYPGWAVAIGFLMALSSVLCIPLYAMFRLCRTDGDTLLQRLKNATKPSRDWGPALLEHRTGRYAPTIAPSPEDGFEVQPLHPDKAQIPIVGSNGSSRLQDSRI

[2] = Metabolic stability in human liver microsomes assessed as compound remaining at 10 uM after 60 mins; format: ADME, Microsome; conditions: read-out: Stability
[3] = molecular target: T2, Sodium- and chloride-dependent glycine transporter 2 (Homo sapiens, UniProt Q9Y345); experiment: Inhibition of human GlyT2 expressed in HEK293 cells assessed as inhibition of [3H]glycine uptake by scintillation proximity assay; format: cell-based
T2 sequence (Q9Y345 whole entry): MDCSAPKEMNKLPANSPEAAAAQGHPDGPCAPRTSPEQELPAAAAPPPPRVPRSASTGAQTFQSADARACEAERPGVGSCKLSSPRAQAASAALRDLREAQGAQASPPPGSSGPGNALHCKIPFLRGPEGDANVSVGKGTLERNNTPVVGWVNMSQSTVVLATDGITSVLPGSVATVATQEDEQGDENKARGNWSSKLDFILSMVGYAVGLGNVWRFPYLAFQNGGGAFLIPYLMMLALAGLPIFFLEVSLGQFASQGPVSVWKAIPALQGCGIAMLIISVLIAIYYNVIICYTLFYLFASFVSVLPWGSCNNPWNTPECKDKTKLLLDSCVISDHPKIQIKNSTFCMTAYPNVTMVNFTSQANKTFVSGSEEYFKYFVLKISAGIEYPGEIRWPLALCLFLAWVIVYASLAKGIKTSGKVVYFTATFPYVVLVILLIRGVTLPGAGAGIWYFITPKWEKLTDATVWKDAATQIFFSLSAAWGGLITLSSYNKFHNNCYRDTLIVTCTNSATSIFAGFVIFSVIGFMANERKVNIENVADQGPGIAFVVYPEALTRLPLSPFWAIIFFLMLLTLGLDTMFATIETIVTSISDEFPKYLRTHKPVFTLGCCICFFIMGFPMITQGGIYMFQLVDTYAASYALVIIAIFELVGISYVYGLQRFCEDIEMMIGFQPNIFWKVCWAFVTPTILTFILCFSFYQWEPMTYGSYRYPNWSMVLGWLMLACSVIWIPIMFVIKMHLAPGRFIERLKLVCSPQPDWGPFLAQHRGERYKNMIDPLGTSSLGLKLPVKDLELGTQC

[4] = Plasma protein binding in rat; format: ADME, cell-free; conditions: read-out: PPB (converted)
[5] = Oral bioavailability in rat at 10 mg/kg; format: ADME, organism-based; conditions: in vivo
[6] = Terminal half life in rat at 2 mg/kg, iv and 10 mg/kg, po; format: ADME, organism-based; conditions: in vivo, read-out: beta t1/2 (converted)
[7] = Tmax in rat at 2 mg/kg, iv and 10 mg/kg, po; format: ADME, organism-based; conditions: in vivo
[8] = AUC (0 to infinity) in rat at 2 mg/kg, iv and 10 mg/kg, po; format: ADME, organism-based; conditions: plasma
[9] = Cmax in rat at 2 mg/kg, iv and 10 mg/kg, po; format: ADME, organism-based; conditions: in vivo
[10] = Total plasma clearance in rat at 2 mg/kg, iv and 10 mg/kg, po; format: ADME, organism-based
[11] = Volume of distribution at steady state in rat at 2 mg/kg, iv and 10 mg/kg, po; format: ADME, organism-based; conditions: in vivo, read-out: Vdss
Salmonella typhimurium [12] = experiment: Mutagenicity against Salmonella typhimurium TA100 by mini-AMES test in absence of rat S9 fraction; format: toxicity, organism-based; conditions: salmonella enterica subsp. enterica serovar typhimurium
Salmonella typhimurium [13] = experiment: Mutagenicity against Salmonella typhimurium TA98 by mini-AMES test in absence of rat S9 fraction; format: toxicity, organism-based; conditions: salmonella enterica subsp. enterica serovar typhimurium
Salmonella typhimurium [14] = experiment: Mutagenicity against Salmonella typhimurium TA100 by mini-AMES test in presence of rat S9 fraction; format: toxicity, organism-based; conditions: salmonella enterica subsp. enterica serovar typhimurium
Salmonella typhimurium [15] = experiment: Mutagenicity against Salmonella typhimurium TA98 by mini-AMES test in presence of rat S9 fraction; format: toxicity, organism-based; conditions: salmonella enterica subsp. enterica serovar typhimurium
[16] = Plasma protein binding in human; format: ADME, cell-free; conditions: read-out: PPB (converted)
[17] = Intrinsic clearance in rat liver microsomes at 1 uM; format: ADME, Microsome; conditions: read-out: CLH
[18] = Intrinsic clearance in human liver microsomes at 1 uM; format: ADME, Microsome; conditions: read-out: CLH
Cytochrome P450 2C9 = Cytochrome P450 2C9 (Homo sapiens, UniProt P11712); experiment: Inhibition of CYP2C9 (unknown origin); format: ADME
Cytochrome P450 2C19 = Cytochrome P450 2C19 (Homo sapiens, UniProt P33261); experiment: Inhibition of CYP2C19 (unknown origin); format: ADME
Cytochrome P450 2D6 = Cytochrome P450 2D6 (Homo sapiens, UniProt P10635); experiment: Inhibition of CYP2D6 (unknown origin); format: ADME
Cytochrome P450 3A4 = Cytochrome P450 3A4 (Homo sapiens, UniProt P08684); experiment: Inhibition of CYP3A4 (unknown origin); format: ADME
[19] = Ratio of drug uptake in brain to plasma in rat at 10 to 75 mg/kg, po after 30 mins; format: ADME, organism-based; parameters: dose 10-75 mg/kg, route oral; conditions: read-out: BPR
[20] = Drug uptake in po dosed rat CSF after 30 mins; format: ADME, organism-based, Cerebrospinal fluid; conditions: in vivo, 0.5 h
Rattus norvegicus [21] = experiment: Antischizophrenic activity in rat assessed as increased glycine level in CSF at 30 to 75 mg/kg, po after 30 mins relative to control; format: functional, organism-based
Rattus norvegicus [22] = experiment: Antischizophrenic activity in po dosed rat assessed as increased glycine level in CSF after 30 mins relative to control; format: functional, organism-based

Chain of Cytochrome P450 2C9 (P11712 whole entry): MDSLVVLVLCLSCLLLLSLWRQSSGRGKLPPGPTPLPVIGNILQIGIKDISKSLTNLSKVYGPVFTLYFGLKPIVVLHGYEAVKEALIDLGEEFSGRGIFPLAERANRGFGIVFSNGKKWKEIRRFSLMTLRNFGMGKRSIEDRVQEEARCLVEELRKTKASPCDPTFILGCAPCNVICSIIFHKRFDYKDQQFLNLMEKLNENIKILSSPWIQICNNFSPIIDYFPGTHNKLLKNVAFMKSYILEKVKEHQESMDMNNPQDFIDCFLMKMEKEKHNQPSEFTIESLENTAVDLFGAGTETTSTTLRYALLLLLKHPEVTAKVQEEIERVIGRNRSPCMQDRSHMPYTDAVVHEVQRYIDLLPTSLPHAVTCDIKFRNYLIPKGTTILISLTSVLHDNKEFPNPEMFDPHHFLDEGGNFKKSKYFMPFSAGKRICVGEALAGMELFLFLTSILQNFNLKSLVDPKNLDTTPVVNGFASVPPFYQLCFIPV
Chain of Cytochrome P450 2D6 (P10635 whole entry): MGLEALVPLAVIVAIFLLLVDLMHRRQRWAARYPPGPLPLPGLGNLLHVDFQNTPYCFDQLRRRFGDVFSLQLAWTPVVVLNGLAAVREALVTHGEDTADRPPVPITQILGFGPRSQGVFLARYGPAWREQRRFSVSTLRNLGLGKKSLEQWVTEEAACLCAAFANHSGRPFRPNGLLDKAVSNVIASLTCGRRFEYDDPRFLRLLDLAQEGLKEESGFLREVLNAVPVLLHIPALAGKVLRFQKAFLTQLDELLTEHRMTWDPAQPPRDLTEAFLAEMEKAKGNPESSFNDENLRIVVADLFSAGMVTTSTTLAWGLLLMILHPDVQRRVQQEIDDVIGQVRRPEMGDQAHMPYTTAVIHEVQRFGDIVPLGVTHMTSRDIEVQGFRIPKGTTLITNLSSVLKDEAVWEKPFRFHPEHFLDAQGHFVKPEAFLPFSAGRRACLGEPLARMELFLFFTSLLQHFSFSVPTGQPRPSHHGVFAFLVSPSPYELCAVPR
Chain of Cytochrome P450 3A4 (P08684 whole entry): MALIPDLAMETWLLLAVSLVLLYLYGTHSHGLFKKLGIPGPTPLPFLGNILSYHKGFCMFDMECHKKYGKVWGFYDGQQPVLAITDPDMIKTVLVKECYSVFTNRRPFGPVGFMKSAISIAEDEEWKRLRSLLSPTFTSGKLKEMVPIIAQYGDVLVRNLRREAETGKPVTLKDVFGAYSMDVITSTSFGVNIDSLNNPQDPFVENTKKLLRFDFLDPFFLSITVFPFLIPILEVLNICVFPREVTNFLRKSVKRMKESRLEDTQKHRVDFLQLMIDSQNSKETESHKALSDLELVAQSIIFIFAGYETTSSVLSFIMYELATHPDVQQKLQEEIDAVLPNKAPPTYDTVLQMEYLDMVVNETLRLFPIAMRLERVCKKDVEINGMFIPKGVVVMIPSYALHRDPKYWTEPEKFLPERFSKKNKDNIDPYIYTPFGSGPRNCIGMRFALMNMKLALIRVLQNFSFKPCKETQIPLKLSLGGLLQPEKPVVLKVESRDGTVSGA
Chain of Cytochrome P450 2C19 (P33261 whole entry): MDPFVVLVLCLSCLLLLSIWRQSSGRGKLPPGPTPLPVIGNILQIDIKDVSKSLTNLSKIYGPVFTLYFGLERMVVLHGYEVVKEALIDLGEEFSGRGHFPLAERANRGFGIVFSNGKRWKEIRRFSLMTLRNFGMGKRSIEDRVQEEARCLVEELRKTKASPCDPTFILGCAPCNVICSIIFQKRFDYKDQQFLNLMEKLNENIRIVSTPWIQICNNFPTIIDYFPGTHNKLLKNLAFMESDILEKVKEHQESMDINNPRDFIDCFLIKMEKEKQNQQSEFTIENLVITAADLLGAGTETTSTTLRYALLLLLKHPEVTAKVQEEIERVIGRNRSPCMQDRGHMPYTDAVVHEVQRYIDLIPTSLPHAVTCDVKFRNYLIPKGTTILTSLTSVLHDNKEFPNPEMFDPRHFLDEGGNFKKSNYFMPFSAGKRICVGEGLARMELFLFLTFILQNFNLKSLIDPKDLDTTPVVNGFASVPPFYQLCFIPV

SMILES: CCCS(=O)(=O)N1CCN(C2(CNC(=O)c3c(N)cccc3Cl)CCCCCC2)CC1
- IC50 [1]: 6.3 nM

SMILES: CCCS(=O)(=O)N1CCN(C2(CNC(=O)c3cccc(C(F)(F)F)c3Cl)CCCCC2)CC1
- remaining at 1 h, 10 µM [2]: 1%
- IC50 [1]: 77.9 nM
- IC50 [3]: > 75000 nM

SMILES: CCCS(=O)(=O)N1CCN(C2(CNC(=O)c3c(OC)cc(C(F)(F)F)cc3C(F)(F)F)CCCCC2)CC1
- remaining at 1 h, 10 µM [2]: 10%
- IC50 [1]: 4.4 nM
- IC50 [3]: > 75000 nM

SMILES: CCCS(=O)(=O)N1CCN(C2(CNC(=O)c3c(F)cccc3F)CCCCC2)CC1
- remaining at 1 h, 10 µM [2]: 16%
- IC50 [3]: > 75000 nM

SMILES: CCCS(=O)(=O)N1CCN(C2(CNC(=O)c3c(F)cccc3F)C[C@H]3C[C@H]3C2)CC1 (mixture of isomers)
- IC50 [1]: 621 nM

SMILES: CCCS(=O)(=O)N1CCN(C2(CNC(=O)c3ccccc3OC(F)(F)F)CCCCC2)CC1
- remaining at 1 h, 10 µM [2]: 2%
- IC50 [3]: > 75000 nM

SMILES: CCCS(=O)(=O)N1CCN(C2(CNC(=O)c3ccc(Cl)cc3)CCCCC2)CC1
- remaining at 1 h, 10 µM [2]: 4%
- IC50 [1]: 175 nM
- IC50 [3]: > 75000 nM

SMILES: CCCS(=O)(=O)N1CCN(C2(CNC(=O)c3ccc(Cl)cc3Cl)CCCCC2)CC1
- remaining at 1 h, 10 µM [2]: 11%
- IC50 [1]: 22.7 nM
- IC50 [3]: > 75000 nM

SMILES: CCCS(=O)(=O)N1CCN(C2(CNC(=O)c3ccc(Cl)cc3Cl)CCOCC2)CC1
- remaining at 1 h, 10 µM [2]: 100%
- IC50 [1]: 500 nM

SMILES: CCCS(=O)(=O)N1CCN(C2(CNC(=O)c3c(N)cccc3Cl)CCCCC2)CC1
- remaining at 1 h, 10 µM [2]: 29%
- IC50 [1]: 15.1 nM
- IC50 [3]: > 75000 nM

SMILES: CCCS(=O)(=O)N1CCN(C2(CNC(=O)c3c(Cl)cccc3Cl)CCCCC2)CC1
- remaining at 1 h, 10 µM [2]: 3%
- IC50 [1]: 12.8 nM
- IC50 [3]: > 75000 nM

SMILES: CCCS(=O)(=O)N1CCN(C2(CNC(=O)c3c(F)cccc3F)CCC(F)(F)CC2)CC1
- fraction unbound [4]: 0.16
- bioavailability [5]: 25.7%
- half-life [6]: 2.9 h
- Tmax [7]: 1.5 h
- AUC(0-inf) [8]: 2000 ng·h/mL
- Cmax [9]: 486 ng/mL
- clearance [10]: 22 mL/min/kg
- Vd [11]: 3.26 L/kg
- Activity (Salmonella typhimurium [12]): Non-toxic
- Activity (Salmonella typhimurium [13]): Non-toxic
- Activity (Salmonella typhimurium [14]): Non-toxic
- Activity (Salmonella typhimurium [15]): Non-toxic
- fraction unbound [16]: 0.13
- microsomal CLint at 1 µM [17]: 5.5 µL/min/mg
- microsomal CLint at 1 µM [18]: 13 µL/min/mg
- IC50 (Cytochrome P450 2C9): > 10000 nM
- IC50 (Cytochrome P450 2C19): > 10000 nM
- IC50 (Cytochrome P450 2D6): > 10000 nM
- IC50 (Cytochrome P450 3A4): > 10000 nM
- Kp at 0.5 h [19]: 0.13
- Drug uptake [20]: Dose-dependent effect
- Activity (Rattus norvegicus [21]): Active
- Activity (Rattus norvegicus [22]): Dose-dependent effect
- remaining at 1 h, 10 µM [2]: 64%

SMILES: CCCS(=O)(=O)N1CCN(C2(CNC(=O)c3ccc(F)cc3C)CCCCC2)CC1
- remaining at 1 h, 10 µM [2]: 2%
- IC50 [3]: > 75000 nM

SMILES: CCCS(=O)(=O)N1CCN(C2(CNC(=O)c3ccc(OC)cc3F)CCCCC2)CC1
- remaining at 1 h, 10 µM [2]: 4%
- IC50 [1]: 17.1 nM
- IC50 [3]: > 75000 nM

SMILES: CCCS(=O)(=O)N1CCN(C2(CNC(=O)c3c(OC)cc(F)cc3SC)CCCCC2)CC1
- remaining at 1 h, 10 µM [2]: 1%
- IC50 [1]: 6.1 nM

SMILES: CCCS(=O)(=O)N1CCN(C2(CNC(=O)c3ccccc3C(F)(F)F)CCCCC2)CC1
- remaining at 1 h, 10 µM [2]: 5%

SMILES: CCCS(=O)(=O)N1CCN(C2(CNC(=O)c3ccc(Cl)c(Cl)c3)CCCCC2)CC1
- remaining at 1 h, 10 µM [2]: 5%
- IC50 [3]: > 75000 nM

SMILES: CCCS(=O)(=O)N1CCN(C2(CNC(=O)c3cccc(C(F)(F)F)c3)CCCCC2)CC1
- IC50 [1]: 523 nM
- IC50 [3]: > 75000 nM

SMILES: CCCS(=O)(=O)N1CCN(C2(CNC(=O)c3ccc(OC(F)(F)F)cc3)CCCCC2)CC1
- remaining at 1 h, 10 µM [2]: 11%
- IC50 [3]: > 75000 nM

SMILES: CCCS(=O)(=O)N1CCN(C2(CNC(=O)c3c(N)cccc3Cl)CCN(C)CC2)CC1
- remaining at 1 h, 10 µM [2]: 40%
